Reference: patent publication US11382328B2, “Rapid drug discovery methods for pathogen inactivation” (priority 2019, dated 2022)

Tested on: E. coli strain W3110
Assay: Synergy assays: Biolog chemical sensitivity panels with Group IB metal, coefficient of drug interaction (CDI) from relative growth
Format: cell-based
Conditions: for CDI (coefficient of drug interaction), gold + biocide: Gold (μM); for CDI (coefficient of drug interaction), copper mixed with biocide: Copper (mM) section
[1] = Copper (mM), 1st of 3 copper concentrations (head line not shown), biocide concentration 4 of 4, E. coli
[2] = Copper (mM), 2nd of 3 copper concentrations (head line not shown), biocide concentration 4 of 4, E. coli
[3] = Copper (mM), 3rd of 3 copper concentrations (head line not shown), biocide concentration 4 of 4, E. coli
[4] = first of 3 gold concentrations, biocide concentration 3 of 4
[5] = first of 3 gold concentrations, biocide concentration 4 of 4
[6] = second of 3 gold concentrations, biocide concentration 3 of 4
[7] = second of 3 gold concentrations, biocide concentration 4 of 4
[8] = third of 3 gold concentrations, biocide concentration 3 of 4
[9] = third of 3 gold concentrations, biocide concentration 4 of 4
[10] = Silver 0.5 μM, biocide concentration 3 of 4
[11] = Silver 0.5 μM, biocide concentration 4 of 4
[12] = Silver 1.0 μM, biocide concentration 3 of 4
[13] = Silver 1.0 μM, biocide concentration 4 of 4
[14] = Silver 5.0 μM, biocide concentration 3 of 4
[15] = Silver 5.0 μM, biocide concentration 4 of 4
[16] = 2nd of 3 copper concentrations (value not shown), 4th of four biocide concentrations
[17] = Silver 0.5 μM, 3rd of four biocide concentrations, E. coli
[18] = Silver 0.5 μM, 4th of four biocide concentrations, E. coli
[19] = Silver 1.0 μM, 3rd of four biocide concentrations, E. coli
[20] = Silver 1.0 μM, 4th of four biocide concentrations, E. coli
[21] = Silver 5.0 μM, 3rd of four biocide concentrations, E. coli
[22] = Silver 5.0 μM, 4th of four biocide concentrations, E. coli

N.N.N.N.N.N.N.N.N.N.N.N.N.N.[Cl-].[Cl-].[Cl-].[Cl-].[Cl-].[Cl-].[O-2].[O-2].[Ru+3].[Ru+3].[Ru+4] [ruthenium red]
CDI (coefficient of drug interaction) (Copper (mM), 1st of 3 copper concentrations (head line not shown), biocide concentration 1 of 4, E. coli): 0.73 | CDI (coefficient of drug interaction) (Copper (mM), 1st of 3 copper concentrations (head line not shown), biocide concentration 2 of 4, E. coli): 0.60 | CDI (coefficient of drug interaction) (Copper (mM), 1st of 3 copper concentrations (head line not shown), biocide concentration 3 of 4, E. coli): 0.51 | CDI (coefficient of drug interaction) [1]: 0.50 | CDI (coefficient of drug interaction) (Copper (mM), 2nd of 3 copper concentrations (head line not shown), biocide concentration 1 of 4, E. coli): 0.52 | CDI (coefficient of drug interaction) (Copper (mM), 2nd of 3 copper concentrations (head line not shown), biocide concentration 2 of 4, E. coli): 0.47 | CDI (coefficient of drug interaction) (Copper (mM), 2nd of 3 copper concentrations (head line not shown), biocide concentration 3 of 4, E. coli): 0.37 | CDI (coefficient of drug interaction) [2]: 0.30 | CDI (coefficient of drug interaction) (Copper (mM), 3rd of 3 copper concentrations (head line not shown), biocide concentration 1 of 4, E. coli): 0.45 | CDI (coefficient of drug interaction) (Copper (mM), 3rd of 3 copper concentrations (head line not shown), biocide concentration 2 of 4, E. coli): 0.38 | CDI (coefficient of drug interaction) (Copper (mM), 3rd of 3 copper concentrations (head line not shown), biocide concentration 3 of 4, E. coli): 0.33 | CDI (coefficient of drug interaction) [3]: 0.29 | CDI (coefficient of drug interaction), gold + biocide (first of 3 gold concentrations, biocide concentration 1 of 4): 1.04 | CDI (coefficient of drug interaction), gold + biocide (first of 3 gold concentrations, biocide concentration 2 of 4): 0.94 | CDI (coefficient of drug interaction), gold + biocide [4]: 1.05 | CDI (coefficient of drug interaction), gold + biocide [5]: 1.06 | CDI (coefficient of drug interaction), gold + biocide (second of 3 gold concentrations, biocide concentration 1 of 4): 1.03 | CDI (coefficient of drug interaction), gold + biocide (second of 3 gold concentrations, biocide concentration 2 of 4): 1.02 | CDI (coefficient of drug interaction), gold + biocide [6]: 1.14 | CDI (coefficient of drug interaction), gold + biocide [7]: 1.07 | CDI (coefficient of drug interaction), gold + biocide (third of 3 gold concentrations, biocide concentration 1 of 4): 1.08 | CDI (coefficient of drug interaction), gold + biocide (third of 3 gold concentrations, biocide concentration 2 of 4): 1.05 | CDI (coefficient of drug interaction), gold + biocide [8]: 1.13 | CDI (coefficient of drug interaction), gold + biocide [9]: 1.09 | CDI (Silver 0.5 μM, biocide concentration 1 of 4): 0.78 | CDI (Silver 0.5 μM, biocide concentration 2 of 4): 0.79 | CDI [10]: 0.75 | CDI [11]: 0.69 | CDI (Silver 1.0 μM, biocide concentration 1 of 4): 0.87 | CDI (Silver 1.0 μM, biocide concentration 2 of 4): 0.89 | CDI [12]: 0.83 | CDI [13]: 0.34 | CDI (Silver 5.0 μM, biocide concentration 1 of 4): 0.68 | CDI (Silver 5.0 μM, biocide concentration 2 of 4): 0.34 | CDI [14]: 0.38 | CDI [15]: 0.19

C[n+]1cc2c3c(ccc2c2ccc4cc5c(cc4c21)OCO5)OCO3 [sanguinarine]
CDI (coefficient of drug interaction), copper mixed with biocide (1st of 3 copper concentrations (value not shown), 4th of four biocide concentrations): Tox | CDI (coefficient of drug interaction), copper mixed with biocide (2nd of 3 copper concentrations (value not shown), 3rd of four biocide concentrations): Tox | CDI (coefficient of drug interaction), copper mixed with biocide [16]: Tox | CDI (coefficient of drug interaction), copper mixed with biocide (3rd of 3 copper concentrations (value not shown), 4th of four biocide concentrations): Tox | CDI (coefficient of drug interaction) (Gold section of Table 5, first of three gold concentrations (μM, value not given), biocide concentration 3 of 4): Tox | CDI (coefficient of drug interaction) (Gold section of Table 5, first of three gold concentrations (μM, value not given), biocide concentration 4 of 4): Tox | CDI (coefficient of drug interaction) (Gold section of Table 5, second of three gold concentrations (μM, value not given), biocide concentration 3 of 4): Tox | CDI (coefficient of drug interaction) (Gold section of Table 5, second of three gold concentrations (μM, value not given), biocide concentration 4 of 4): Tox | CDI (coefficient of drug interaction) (Gold section of Table 5, third of three gold concentrations (μM, value not given), biocide concentration 3 of 4): Tox | CDI (coefficient of drug interaction) (Gold section of Table 5, third of three gold concentrations (μM, value not given), biocide concentration 4 of 4): Tox | CDI (coefficient of drug interaction), silver + biocide [17]: Tox | CDI (coefficient of drug interaction), silver + biocide [18]: Tox | CDI (coefficient of drug interaction), silver + biocide [19]: Tox | CDI (coefficient of drug interaction), silver + biocide [20]: Tox | CDI (coefficient of drug interaction), silver + biocide [21]: Tox | CDI (coefficient of drug interaction), silver + biocide [22]: Tox

NNC(N)=O [semicarbazide]
CDI (coefficient of drug interaction), copper mixed with biocide [16]: Tox | CDI (coefficient of drug interaction), silver + biocide [17]: Tox | CDI (coefficient of drug interaction), silver + biocide [18]: Tox | CDI (coefficient of drug interaction), silver + biocide [19]: Tox | CDI (coefficient of drug interaction), silver + biocide [20]: Tox | CDI (coefficient of drug interaction), silver + biocide [21]: Tox | CDI (coefficient of drug interaction), silver + biocide [22]: Tox

CCCCCCCC(=O)[O-].[Na+] [sodium caprylate]
CDI (coefficient of drug interaction) [1]: Tox | CDI (coefficient of drug interaction) [2]: Tox | CDI (coefficient of drug interaction) [3]: Tox | CDI (coefficient of drug interaction), gold + biocide [4]: Tox | CDI (coefficient of drug interaction), gold + biocide [5]: Tox | CDI (coefficient of drug interaction), gold + biocide [6]: Tox | CDI (coefficient of drug interaction), gold + biocide [7]: Tox | CDI (coefficient of drug interaction), gold + biocide [8]: Tox | CDI (coefficient of drug interaction), gold + biocide [9]: Tox | CDI [10]: Tox | CDI [11]: Tox | CDI [12]: Tox | CDI [13]: Tox | CDI [14]: Tox | CDI [15]: Tox

Nc1ccc(S(=O)(=O)Nc2ncccn2)cc1 [sulfadiazine]
cell toxicity / growth curves with and without silver: enhanced cell toxicity

O=C(O)c1ccccc1S [thiosalicylic acid]
CDI (coefficient of drug interaction), silver + biocide [18]: Tox | CDI (coefficient of drug interaction), silver + biocide [20]: Tox | CDI (coefficient of drug interaction), silver + biocide [22]: Tox

Cl.N[C@@H](CCl)C(=O)O [β-Chloro-L-alanine HCl, β-chloro-L-alanine hydrochloride]
CDI [10]: Tox | CDI [11]: Tox | CDI [12]: Tox | CDI [13]: Tox | CDI [14]: Tox | CDI [15]: Tox
